± gives the expanded uncertainty stated by the source.
Test: molar enthalpy of vaporization or sublimation
Conditions: 298.15 K, Calvet microcalorimetry

Row | Compound | molar enthalpy (Liquid) | molar enthalpy (Crystal)
1 | Oc1ccccc1F [2-fluorophenol] | 12.5 ± 0.382 kcal/mol | –
2 | Oc1cccc(F)c1 [3-fluorophenol] | 14.4 ± 0.43 kcal/mol | –
3 | Oc1ccc(F)cc1 [4-fluorophenol] | – | 17.7 ± 0.669 kcal/mol

From the NIST ThermoML archive (doi:10.1021/je9000872)
